This is an account of results in PubChem BioAssay (NCI).

Among the test systems are OVCAR-8 ovarian; HOP-18 NSCLC; OVCAR-4 ovarian; NCI/ADR-RES ovarian; CAKI-1 renal; K-562 leukemia; MOLT-4 leukemia; EKVX NSCLC; UO-31 renal; SNB-75 CNS; OVCAR-5 ovarian; SN12C renal; HCT-116 colon; SF-295 CNS; DU-145 prostate; MDA-N; SR leukemia; ACHN renal; XF 498 CNS; M14 melanoma.
Assay in all cases: NCI tumour cell line growth inhibition, 48 h

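Tested at 5 concentrations; 48 h exposure; 96-well plates; endpoints linearly interpolated, else capped at highest concentration. TGI: total growth inhibition.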 Some results are limits rather than exact numbers.

`CC(=O)C(=O)NC1/C=C(C)\C=C/C(O)C/C=C(C)\C=C/C(O)CC2OC(=O)C1(C)C(=O)C2C` (stereo not drawn): the TGI in the assay on OVCAR-8 ovarian, with HOP-18 NSCLC, in the assay with OVCAR-4 ovarian, in the assay with NCI/ADR-RES ovarian, in the assay with CAKI-1 renal and with K-562 leukemia was over 100 µM in each case. In addition, the TGI in the assay on MOLT-4 leukemia, in the assay with EKVX NSCLC, with UO-31 renal, in the assay with SNB-75 CNS, in the assay on OVCAR-5 ovarian and in the assay with SN12C renal was over 100 µM in each case. The TGI with HCT-116 colon and in the assay on SF-295 CNS was over 100 µM in each case.

In the case of `C/C(=N\Nc1nc2cc(Cl)ccc2s1)c1ccccn1`, the TGI is over 40.4 µM in the assay on OVCAR-8 ovarian; over 100 µM in the assay on OVCAR-4 ovarian; over 23.3 µM with DU-145 prostate; 46 µM in the assay on CAKI-1 renal; over 100 µM in the assay with K-562 leukemia; over 100 µM with MDA-N. Also, the TGI with MOLT-4 leukemia is over 100 µM; with EKVX NSCLC, over 35.5 µM; with UO-31 renal, 14.8 µM; with SR leukemia it was over 100 µM; in the assay on SNB-75 CNS, 31.3 µM; with OVCAR-5 ovarian it was over 100 µM. The TGI was 15.2 µM in the assay on SN12C renal, over 100 µM with HCT-116 colon and 13.4 µM in the assay on ACHN renal.

As to `CN(C)C(=O)Oc1c(Br)cc(Br)cc1C(=O)OCc1ccccc1`, the TGI in the assay on OVCAR-8 ovarian was over 100 µM; in the assay on HOP-18 NSCLC, 96.9 µM; with OVCAR-4 ovarian, over 100 µM; in the assay on XF 498 CNS it was 49.2 µM; in the assay with NCI/ADR-RES ovarian, 51.8 µM; with CAKI-1 renal, 68.6 µM. Besides, the TGI with K-562 leukemia is over 90.2 µM; with MOLT-4 leukemia, 44.3 µM; in the assay on EKVX NSCLC, over 100 µM; in the assay on UO-31 renal it was 68.9 µM; in the assay with SNB-75 CNS, 97 µM; with OVCAR-5 ovarian it was over 100 µM. The TGI stood at 52.8 µM in the assay on SN12C renal, 29 µM with HCT-116 colon and 55.7 µM with SF-295 CNS.

Consider `O=C1CC(/C=C/c2ccco2)=C(O)C1=O`, for which the TGI in the assay on OVCAR-8 ovarian was 30 µM; in the assay with OVCAR-4 ovarian it was 27.3 µM; with DU-145 prostate, 32.5 µM; in the assay on NCI/ADR-RES ovarian, over 100 µM; in the assay on M14 melanoma, 29.2 µM; with CAKI-1 renal it was 34.6 µM. The TGI with K-562 leukemia amounted to 49 µM; with MDA-N, 29.7 µM; with MOLT-4 leukemia it was 60.8 µM; in the assay with EKVX NSCLC, 37.6 µM; in the assay on UO-31 renal it was 61.3 µM; with SR leukemia, 37.2 µM. Moreover, the TGI with SNB-75 CNS is 32.9 µM; in the assay with OVCAR-5 ovarian it was 30.1 µM; in the assay with SN12C renal it was 27.7 µM; in the assay on HCT-116 colon, 30.4 µM; in the assay on SF-295 CNS it was 40.9 µM; with ACHN renal, 34.3 µM.

`COC1OCC(O)C(NC(=O)N(C)N=O)C1O` (stereo not drawn): the TGI with OVCAR-8 ovarian, in the assay with HOP-18 NSCLC, in the assay on OVCAR-4 ovarian, in the assay with XF 498 CNS, in the assay with NCI/ADR-RES ovarian and with CAKI-1 renal was over 100 µM throughout. Further, the TGI in the assay on K-562 leukemia, in the assay on MOLT-4 leukemia, in the assay on EKVX NSCLC, with UO-31 renal, in the assay with SNB-75 CNS and with OVCAR-5 ovarian was over 100 µM throughout. The TGI in the assay with SN12C renal, with HCT-116 colon and in the assay with SF-295 CNS was over 100 µM throughout.

Consider `O=c1ccc2ccc(CBr)cc2o1`, for which the TGI in the assay with OVCAR-8 ovarian turned out to be 4.06 µM; in the assay with DU-145 prostate, 30.8 µM; in the assay with NCI/ADR-RES ovarian it was 3.73 µM; with M14 melanoma, 8.92 µM; in the assay with CAKI-1 renal it was 2.89 µM; in the assay with K-562 leukemia, 5.2 µM. The TGI in the assay on MDA-N is 15.1 µM; with MOLT-4 leukemia, 5.98 µM; in the assay with EKVX NSCLC, 5.94 µM; in the assay on SR leukemia, 5.05 µM; in the assay on SNB-75 CNS, over 100 µM; in the assay on OVCAR-5 ovarian, 3.29 µM. Moreover, the TGI with SN12C renal amounted to 7.22 µM; in the assay on HCT-116 colon, 3.74 µM; in the assay with SF-295 CNS, 28.7 µM.

Take `CCN1c2ccccc2NC(=S)c2c1n[nH]c2-c1ccccc1`: the TGI is over 100 µM in the assay with OVCAR-8 ovarian; over 100 µM in the assay on OVCAR-4 ovarian; over 100 µM in the assay on DU-145 prostate; 60.9 µM in the assay on NCI/ADR-RES ovarian; over 100 µM in the assay on M14 melanoma; over 100 µM in the assay with CAKI-1 renal. The TGI in the assay with K-562 leukemia was 39.8 µM; in the assay with MDA-N it was 32.6 µM; with MOLT-4 leukemia, 38.2 µM; in the assay with EKVX NSCLC, over 100 µM; in the assay on SR leukemia it was 67.3 µM; in the assay on SNB-75 CNS it was over 100 µM. The TGI in the assay with OVCAR-5 ovarian is over 100 µM; in the assay with SN12C renal, over 100 µM; in the assay with HCT-116 colon, over 100 µM; in the assay with SF-295 CNS it was 59.3 µM; in the assay on ACHN renal, over 100 µM.

Take `CCCCCCSc1nc(N)nc2nc[nH]c12`: the TGI is over 100 µM in the assay with OVCAR-8 ovarian; over 72.6 µM with HOP-18 NSCLC; over 100 µM in the assay on OVCAR-4 ovarian; over 89.6 µM with XF 498 CNS; over 100 µM with NCI/ADR-RES ovarian; over 100 µM with K-562 leukemia. In addition, the TGI with MOLT-4 leukemia is over 100 µM; with EKVX NSCLC it was over 100 µM; with UO-31 renal it was 68.6 µM; in the assay with SNB-75 CNS it was 71.7 µM; in the assay with OVCAR-5 ovarian, over 100 µM; in the assay with SN12C renal, over 100 µM. For the same compound, the TGI with HCT-116 colon and with SF-295 CNS was over 100 µM in each case.

Regarding `CCOC(=O)c1nc2ccc(OC)cc2c2c1Cc1ccccc1-2`, the TGI with OVCAR-8 ovarian, with OVCAR-4 ovarian, in the assay on M14 melanoma, in the assay on CAKI-1 renal, with K-562 leukemia and with MOLT-4 leukemia was over 100 µM in each case. For the same compound, the TGI in the assay on UO-31 renal, in the assay on SR leukemia, in the assay with SNB-75 CNS, in the assay on OVCAR-5 ovarian, in the assay on SN12C renal and in the assay with HCT-116 colon was over 100 µM in each case. Moreover, the TGI in the assay with SF-295 CNS and in the assay with ACHN renal was over 100 µM in each case.

Turning to `CN(C)CCNC(=O)c1cccc2ccc(-c3ccc(Br)cc3)nc12`, the TGI turned out to be 4.76 µM in the assay with OVCAR-8 ovarian; 8.25 µM in the assay on HOP-18 NSCLC; 8.5 µM with OVCAR-4 ovarian; 6.94 µM in the assay on XF 498 CNS; 5.89 µM in the assay on NCI/ADR-RES ovarian; 7.15 µM with CAKI-1 renal. Further, the TGI was determined as 9.2 µM in the assay on K-562 leukemia; 1.48 µM in the assay with MOLT-4 leukemia; 9.08 µM in the assay on EKVX NSCLC; 3.99 µM with UO-31 renal; 10.7 µM with SNB-75 CNS; 10.2 µM in the assay with OVCAR-5 ovarian. Besides, the TGI in the assay on SN12C renal is 13.5 µM; in the assay on HCT-116 colon it was 5.13 µM; in the assay with SF-295 CNS, 14.8 µM.

Take `CC1(C)OC[C@H](C(=N)OCc2ccccc2)O1`: the TGI in the assay on OVCAR-8 ovarian, in the assay with OVCAR-4 ovarian, in the assay on XF 498 CNS, in the assay with M14 melanoma, with CAKI-1 renal and in the assay with K-562 leukemia was over 100 µM in each case. In addition, the TGI with MOLT-4 leukemia, with EKVX NSCLC, with UO-31 renal, with SR leukemia, in the assay with SNB-75 CNS and in the assay with OVCAR-5 ovarian was over 100 µM throughout. For the same compound, the TGI with SN12C renal, in the assay with HCT-116 colon, with SF-295 CNS and in the assay with ACHN renal was over 100 µM in each case.
